Earlier results on 1 compound are cited in patent US20050049209A1, “Pharmaceutical compositions for delivering macrolides” (priority 2003, published 2005).

For this data set the following is noted: can be solubilized at pH<5 as salt.

As to `CC[C@H]1OC(=O)[C@H](C)[C@@H](OC2CC(C)(OC)C(O)C(C)O2)[C@H](C)[C@@H](OC2OC(C)CC(N(C)C)C2O)[C@](C)(OC)C[C@@H](C)C(=O)[C@H](C)[C@@H](O)[C@]1(C)O` (stereo partly shown) [Clarithromycin freebase, 6-O-methyl-erythromycin], the solubility in water entry is given as “substantially insoluble”.
